The test system of assay [1] is human SGBS preadipocytes. Briefly: Growth assay in human SGBS preadipocytes (crystal violet). In kind it is cell-based. Conditions: 12 to 14 days, 10 nM-10 uM. Here is the method: (§1) After the treatment, the cells were fixed in cold methanol for 15 minutes and stained with crystal violet for 10 minutes. Dye excess was washed with water and pictures taken immediately afterwards.

Assay [2] deals with human SKMCs (HMCL-7304). Briefly: Growth assay in human SKMCs (crystal violet). In kind it is cell-based. As to conditions: 12 to 14 days, 10 nM-10 uM. The method, then:
as §1

Assay [3] relates to iPSC lines. Briefly: HMGCR inhibition in iPSC lines, RNA-seq differential expression. The class given is cell-based, human. Conditions: 1 uM, 12 h. The method, then: Previous efforts have validated predictive networks through similar approaches.
For the expression residuals used for the co-expression and predictive network analyses, 2 analysis streams were adopted: one where there was use of all samples without adjusting for patient ID (AS) and one where there was an averaging of residuals per patient (ApP). Differentially expressed genes were determined using a linear model, as implemented in the 1mFit function from the limma package v3.18.13 in R. Statistical significance was assessed using a cut-off of 0.05 on FDR adjusted p-values.
iPSCs from 6 IS and 6 IR individuals were maintained in feeder-free conditions using mTesr1 (Stem Cell technologies, Inc) supplemented with 1 mM L-Glutamine, 1 mM Penicillin-Streptomycin, 0.1 μ/ml Fungizone.) on 5% matrigel coated 6-well TC plates. For passaging, cells were washed once with PBS and treated with pre-warmed 1 mM EDTA (Sigma), incubated at 37 degrees for 1-5 minutes, and resuspended in fresh mTesr1 medium 2 μM Thiazovivin (Millipore). After 12 hours incubation in Thiazovivin, medium was changed daily with fresh mTesr1. […] Cells were washed once in PBS and harvested for RNA extraction using PureLInk RNA mini kit (Thermo Fisher Scientific). Total RNA was quantified using a Nanodrop (Thermo Scientific). RNA samples with a A260/280 ratio <1.8 or >2.3 were excluded from further processing and the RNA was sequenced using the Illumina HiSeq 2500 system.

Assay [4] concerns human adipocytes (differentiated SGBS cells). Briefly: Insulin mediated glucose uptake assay in mature human adipocytes (differentiated SGBS). In kind it is cell-based. Conditions: 24 hours pretreatment 10 nM-10 uM, 100 nM insulin stimulation. The method, then:
For adipogenic differentiation SGBS cells were grown to confluence and subjected to a two-step differentiation process. […] Afterwards, cells were exposed to DMEM/F12 supplemented with 0.01 mg/mL of transferrin, […] of insulin, 100 nM cortisol, and 0.2 nM 3,3′,5-Triiodo-L-thyronine for additional 12 days. HMCL-7304 cells were differentiated in presence of SKMC differentiation medium (PromoCell) for 4-5 days before glucose uptake was performed. […] After the preincubation, the cells were starved for 2 hours prior to 30 minutes of 100 nM insulin stimulation at 37 degrees. […] The cells were then washed with PBS, harvested in 300 uL of M-PER lysis buffer (ThermoFisher), and then added to scintillation vials containing 4.75 mL of scintillation fluid (Perk Elmer). Radioactive counts were determined with a scintillation counter (Model ID: Beckman LS6500). Excess samples were subjected to BCA assay for protein quantification and normalization of radioactive counts. All samples were represented as fold change compared to the unstimulated (no insulin) condition.

For assay [5], the system named is SGBS cells. Briefly: Adipogenic differentiation assay (Oil Red O) in SGBS cells. In kind it is cell-based, human. As to conditions: inhibitor added at day 0 of differentiation, 10 nM-10 uM. The method, then:
For adipogenic differentiation SGBS cells were grown to confluence and subjected to a two-step differentiation process. […] Afterwards, cells were exposed to DMEM/F12 supplemented with 0.01 mg/mL of transferrin, […] of insulin, 100 nM cortisol, and 0.2 nM 3,3′,5-Triiodo-L-thyronine for additional 12 days. HMCL-7304 cells were differentiated in presence of SKMC differentiation medium (PromoCell) for 4-5 days before glucose uptake was performed. […] Differentiation quantification was performed with Oil Red 0. Differentiated SGBS cells were fixed with 10% formalin for 10 minutes at room temperature. After washing with 60% isopropanol, samples were incubated in Oil Red 0 (Sigma-Aldrich) for 10 minutes at room temperature. Oil Red 0 was eluted with 100% isopropanol for 10 minutes. The solution was then transferred into a 96-well plate and absorbance measured at 500nm.

Entries after “also recorded” stand apart in the source; their conditions may differ.

`NCCCC(O)(P(=O)(O)O)P(=O)(O)O` [alendronate]: the preadipocyte growth entry in assay [1] is on record as “only HMGCR inhibition demonstrates a detectable decrease”. In addition, the “cell proliferation in SKMCs” value in assay [2] is given as “only a significant effect on glucose uptake”.
As to `CC(C)c1c(C(=O)Nc2ccccc2)c(-c2ccccc2)c(-c2ccc(F)cc2)n1CC[C@@H](O)C[C@@H](O)CC(=O)O` [atorvastatin], the preadipocyte growth result in assay [1] was “detectable decrease”. The “number of DE genes, treated vs untreated samples” value in assay [3] (IR iPSC group only) stood at 785; in assay [3] (IS iPSC group only) it was 711; in assay [3] (all iPSC lines (6 IR, 6 IS)) it was 3205. The “cell proliferation in SKMCs” value in assay [2] is on record as “inhibits; also recorded: affected”.
Consider `CN(C/C=C/C#CC(C)(C)C)Cc1cccc2ccccc12` [terbinafine], for which the “insulin mediated glucose uptake” value in assay [4] is listed as “decrease insulin mediated glucose uptake”. Further, the preadipocyte growth result in assay [1] was “only HMGCR inhibition demonstrates a detectable decrease”. In addition, the “differentiation efficiency (adipogenesis, Oil Red O absorbance at 500 nm)” value in assay [5] is on record as “only HMGCR inhibition demonstrates a detectable decrease”. In assay [2], the “cell proliferation in SKMCs” value was “only a significant effect on glucose uptake”.
